In US20050009775A1 (priority 2001, published 2005):

Tested on: HCV replicon in the 5-15 subline of Huh-7 cells
Test: Replicon ELISA (HCV replicon assay)
Format: cell-based, hepatitis C virus (HCV 1b)
Conditions: Hepatitis C virus; Huh-7 5-15 cells, HCV 1b replicon, 72 hours, NS4a ELISA
Excerpt: The 5-15 subline of Huh-7 cells (Lohmann, V., Korner, F., Koch, J-O., Herian, U., Theilmann, L. & Bartenschlager, R., 1999, Science, 2, pp 110-113) were used for these assays. These are human hepatocellular carcinoma cells stably transfected with an HCV replicon comprising the majority of the HCV 1b genome with the addition of a selectable marker gene, but lacking the genes encoding for all structural proteins and non-structural protein (NS) 2. The replicon RNA is self-replicating and fully functional viral proteins are translated from it. A quantifiable and specific reduction of expressed protein in the presence of a drug can be used as a measure of replicon inhibition.
Stock solutions of compound samples were formulated to 40 mM in DMSO. […]
ELISA step: Growth medium was removed from the plate and the cell monolayers were washed gently once with phosphate buffered saline (PBS) prior to fixing with a 1:1 mix of acetone:methanol for 5 minutes. […] The reaction was stopped by the addition of 25 μl per well of 2M sulphuric acid and the plates were read spectrophotometrically at 490 nm. […]
The absorbance values from all compound-free wells that had received both primary and secondary antibodies were averaged to obtain a positive control value. The mean absorbance value from the compound-free wells that had not received the primary antibody was used to provide the negative (background) control value. […]

SMILES | IC50 [µM]
COC(=O)[C@H](C)NP(=O)(OC[C@@H]1C[C@@H](O)[C@H](n2ccc(N)nc2=O)O1)Oc1ccccc1 (some centres unmarked) [Example 2] | < 200
C[C@H](NP(=O)(OC[C@@H]1C[C@@H](O)[C@H](n2ccc(N)nc2=O)O1)Oc1ccccc1)C(=O)OCc1ccccc1 (some centres unmarked) [Example 3] | < 200
